This note sets out measurements from US20090270394A1, “CYCLYLAMINE DERIVATIVES AS CALCIUM CHANNEL BLOCKERS” (priority 2008, published 2009).

This test deals with T1, Human Cav2.2 channels (Homo sapiens, UniProt Q00975).
T1 construct: expressed in transfected cells
The test is described as follows: Fluorescent assay for Cav2.2 channels using potassium depolarization to initiate channel opening. To be noted: for inhibition at 10 µM: 10 μM compound, read-out: Cav 2.2 Activity % Inh at 10 μM; for inhibition at 30 µM: 30 μM compound, read-out: Cav 2.2 Activity % Inh at 30 μM; for IC50: 30 mM K (block of open and inactivated channels), read-out: Cav 2.2 Activity IC50 at 30 mM K. It counts as cell-based. The source says: Human Cav2.2 channels were stably expressed in HEK293 cells along with alpha2-delta and beta subunits of voltage-gated calcium channels. An inwardly rectifying potassium channel (Kir2.3) was also expressed in these cells to allow more precise control of the cell membrane potential by extracellular potassium concentration. At low bath potassium concentration, the membrane potential is relatively negative, and is depolarized as the bath potassium concentration is raised. In this way, the bath potassium concentration can be used to regulate the voltage-dependent conformations of the channels. […] After the incubation period, Cav2.2 channel opening is triggered by addition of higher concentration of potassium (70 mM final concentration) to further depolarize the cell. The degree of state-dependent block can be estimated from the inhibitory potency of compounds after incubation in different potassium concentrations.
Calcium influx through Cav2.2 channels is determined using a calcium sensitive fluorescent dye in combination with a fluorescent plate reader. Fluorescent changes were measured with either a VIPR (Aurora Instruments) or FLIPR (Molecular Devices) plate reader.
• 1. Seed cells in Poly-D-Lysine Coated 96 or 384-well plate and keep in a 37° C.-10% CO2 incubator overnight • 2. […] Incubate in the dark at 25° C. for 60-70 min • 5. Remove dye, wash cells with 0.1 mL (96-well plate) or 0.06 mL (384-well plate) of 4, 12, 25, or 30 mM Potassium Pre-polarization Buffer (PPB) • 6. […] Incubate in the dark at 25° C. for 30 min • 8. Read cell plate on VIPR instrument, Excitation=480 nm, Emission=535 nm • 9. With VIPR continuously reading, add 0.1 mL (96-well plate) or 0.03 mL (384-well plate) of Depolarization Buffer (DB), which is 2× the final assay concentration, to the cell plate.

One may read the IC50 as the midpoint of a concentration-inhibition curve.

T1 sequence (Q00975 whole entry): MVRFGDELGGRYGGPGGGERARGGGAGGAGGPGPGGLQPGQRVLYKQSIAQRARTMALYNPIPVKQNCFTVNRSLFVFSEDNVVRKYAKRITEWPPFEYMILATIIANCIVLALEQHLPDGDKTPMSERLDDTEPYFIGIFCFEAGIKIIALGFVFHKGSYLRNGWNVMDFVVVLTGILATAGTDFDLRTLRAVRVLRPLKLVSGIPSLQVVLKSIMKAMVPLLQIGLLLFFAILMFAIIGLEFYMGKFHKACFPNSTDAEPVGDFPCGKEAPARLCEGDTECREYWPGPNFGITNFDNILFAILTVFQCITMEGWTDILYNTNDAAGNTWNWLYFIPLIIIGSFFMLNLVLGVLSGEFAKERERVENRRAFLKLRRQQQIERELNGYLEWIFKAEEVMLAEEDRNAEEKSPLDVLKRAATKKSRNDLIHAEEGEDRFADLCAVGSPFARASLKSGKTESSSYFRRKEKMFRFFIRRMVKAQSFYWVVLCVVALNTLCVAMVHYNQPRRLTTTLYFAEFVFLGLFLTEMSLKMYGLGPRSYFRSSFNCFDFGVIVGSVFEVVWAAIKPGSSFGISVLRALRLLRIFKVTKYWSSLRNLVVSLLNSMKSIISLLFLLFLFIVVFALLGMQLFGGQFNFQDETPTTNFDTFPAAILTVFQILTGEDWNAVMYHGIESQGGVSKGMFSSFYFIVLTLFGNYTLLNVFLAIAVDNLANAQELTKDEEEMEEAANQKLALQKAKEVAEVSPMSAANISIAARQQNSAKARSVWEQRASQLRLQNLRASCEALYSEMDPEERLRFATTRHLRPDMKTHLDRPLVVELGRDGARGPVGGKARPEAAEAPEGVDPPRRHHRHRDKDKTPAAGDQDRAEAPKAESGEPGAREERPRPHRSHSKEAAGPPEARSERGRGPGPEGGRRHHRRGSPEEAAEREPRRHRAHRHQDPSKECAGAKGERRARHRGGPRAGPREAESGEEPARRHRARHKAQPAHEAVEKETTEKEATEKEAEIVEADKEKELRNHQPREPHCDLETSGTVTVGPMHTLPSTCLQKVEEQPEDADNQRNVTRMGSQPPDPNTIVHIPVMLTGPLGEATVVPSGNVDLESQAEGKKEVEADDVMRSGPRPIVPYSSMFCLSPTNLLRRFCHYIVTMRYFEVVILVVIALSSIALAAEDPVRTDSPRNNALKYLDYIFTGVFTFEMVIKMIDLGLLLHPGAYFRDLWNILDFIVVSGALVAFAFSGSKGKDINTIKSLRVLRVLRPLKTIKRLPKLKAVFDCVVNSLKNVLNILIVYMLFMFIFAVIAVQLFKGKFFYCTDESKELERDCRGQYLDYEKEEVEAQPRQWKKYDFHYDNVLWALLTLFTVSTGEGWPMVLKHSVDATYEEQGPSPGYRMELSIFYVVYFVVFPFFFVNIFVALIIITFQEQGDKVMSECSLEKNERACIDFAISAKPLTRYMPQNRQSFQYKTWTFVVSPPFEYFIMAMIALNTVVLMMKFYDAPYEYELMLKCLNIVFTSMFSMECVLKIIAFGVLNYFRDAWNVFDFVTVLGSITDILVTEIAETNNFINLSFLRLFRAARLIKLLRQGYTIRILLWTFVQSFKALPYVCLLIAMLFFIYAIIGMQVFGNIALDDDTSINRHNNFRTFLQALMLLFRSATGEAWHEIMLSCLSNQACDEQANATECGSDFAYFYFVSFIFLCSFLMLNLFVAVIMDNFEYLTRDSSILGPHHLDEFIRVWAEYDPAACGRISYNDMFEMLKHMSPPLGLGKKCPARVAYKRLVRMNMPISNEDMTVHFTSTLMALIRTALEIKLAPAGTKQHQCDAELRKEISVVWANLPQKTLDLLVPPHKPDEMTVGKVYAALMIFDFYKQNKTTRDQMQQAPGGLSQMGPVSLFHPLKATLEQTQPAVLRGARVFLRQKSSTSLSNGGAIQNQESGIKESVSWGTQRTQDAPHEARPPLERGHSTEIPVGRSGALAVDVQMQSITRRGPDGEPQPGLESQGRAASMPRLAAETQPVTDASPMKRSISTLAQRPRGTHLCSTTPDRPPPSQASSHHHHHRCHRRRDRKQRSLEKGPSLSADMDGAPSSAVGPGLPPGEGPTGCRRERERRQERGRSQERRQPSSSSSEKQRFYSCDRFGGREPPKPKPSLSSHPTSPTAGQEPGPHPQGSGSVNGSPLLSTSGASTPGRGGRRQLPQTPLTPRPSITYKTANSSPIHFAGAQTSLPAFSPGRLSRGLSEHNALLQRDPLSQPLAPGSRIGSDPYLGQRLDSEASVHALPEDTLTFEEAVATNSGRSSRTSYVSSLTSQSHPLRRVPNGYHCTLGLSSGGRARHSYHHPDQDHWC
T1 sequence (P54289 25-1103 partner): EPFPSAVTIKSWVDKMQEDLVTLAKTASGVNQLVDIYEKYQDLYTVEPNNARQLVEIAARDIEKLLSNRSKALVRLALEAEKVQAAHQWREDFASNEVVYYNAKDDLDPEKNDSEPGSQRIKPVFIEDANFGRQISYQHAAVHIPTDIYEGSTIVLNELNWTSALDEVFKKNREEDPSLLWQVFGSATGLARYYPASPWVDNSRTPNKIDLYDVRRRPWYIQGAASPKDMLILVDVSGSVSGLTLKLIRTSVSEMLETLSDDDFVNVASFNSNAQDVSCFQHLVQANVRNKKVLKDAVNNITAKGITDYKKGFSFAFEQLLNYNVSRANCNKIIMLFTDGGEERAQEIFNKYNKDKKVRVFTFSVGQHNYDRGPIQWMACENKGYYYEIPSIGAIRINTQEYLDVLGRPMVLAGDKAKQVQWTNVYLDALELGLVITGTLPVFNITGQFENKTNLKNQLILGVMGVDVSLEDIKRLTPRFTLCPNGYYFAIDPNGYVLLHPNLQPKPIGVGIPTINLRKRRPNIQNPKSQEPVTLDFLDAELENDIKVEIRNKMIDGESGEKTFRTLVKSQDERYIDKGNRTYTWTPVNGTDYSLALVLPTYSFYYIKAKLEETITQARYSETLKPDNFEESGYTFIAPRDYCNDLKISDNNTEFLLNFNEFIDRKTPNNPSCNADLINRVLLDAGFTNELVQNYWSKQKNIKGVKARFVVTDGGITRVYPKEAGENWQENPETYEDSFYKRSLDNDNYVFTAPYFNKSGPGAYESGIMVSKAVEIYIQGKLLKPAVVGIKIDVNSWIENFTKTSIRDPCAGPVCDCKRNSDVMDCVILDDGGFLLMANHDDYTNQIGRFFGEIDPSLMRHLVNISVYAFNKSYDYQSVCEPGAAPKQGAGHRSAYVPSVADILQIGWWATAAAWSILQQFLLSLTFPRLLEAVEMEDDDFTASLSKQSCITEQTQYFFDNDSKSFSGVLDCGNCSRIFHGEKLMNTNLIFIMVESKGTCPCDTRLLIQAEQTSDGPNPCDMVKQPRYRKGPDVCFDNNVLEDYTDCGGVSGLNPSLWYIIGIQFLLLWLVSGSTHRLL
T1 sequence (P54284 whole entry partner): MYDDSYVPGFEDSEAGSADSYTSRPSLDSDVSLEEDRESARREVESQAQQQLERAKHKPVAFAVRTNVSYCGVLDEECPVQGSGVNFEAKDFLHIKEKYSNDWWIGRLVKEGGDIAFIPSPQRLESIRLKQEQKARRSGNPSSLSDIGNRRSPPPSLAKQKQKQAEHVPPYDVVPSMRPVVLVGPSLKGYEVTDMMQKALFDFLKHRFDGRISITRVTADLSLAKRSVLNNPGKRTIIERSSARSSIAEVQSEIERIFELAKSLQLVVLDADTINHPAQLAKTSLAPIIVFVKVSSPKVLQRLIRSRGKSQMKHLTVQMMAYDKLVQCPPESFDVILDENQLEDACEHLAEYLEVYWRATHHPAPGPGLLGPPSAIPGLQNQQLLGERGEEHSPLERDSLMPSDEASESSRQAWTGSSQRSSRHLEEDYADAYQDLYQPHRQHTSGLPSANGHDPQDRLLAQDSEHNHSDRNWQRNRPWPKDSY

As for `COc1ccc(CNC(=O)C2(NC(=O)c3cc(C(C)(C)C)nc(C(C)(C)C)c3)CCCC2)cc1` [Compound 89, 2,6-di-tert-butyl-N-(1-(4-methoxybenzylcarbamoyl)cyclopentyl)isonicotinamide], the inhibition at 10 µM was determined as 90.8%, the inhibition at 30 µM amounted to 100% and the IC50 was found to be 54.6 nM.

Regarding `CC(C)(C)c1cc(CNC2(C(=O)NCc3ccccc3)CCCCC2)cc(C(C)(C)C)c1` [Compound 57, N-benzyl-1-(3,5-di-tert-butylbenzylamino)cyclohexanecarboxamide], the inhibition at 10 µM came to 99.8%, the inhibition at 30 µM came out at 101% and the IC50 was found to be 868 nM.

Consider `COc1c(C(C)(C)C)cc(CC(=O)NC2(C(=O)NCc3ccccc3)CCCCC2)cc1C(C)(C)C` [Compound 17, N-benzyl-1-(2-(3,5-di-tert-butyl-4-methoxyphenyl)acetamido)cyclohexanecarboxamide], for which the inhibition at 10 µM was determined as 48.2% and the inhibition at 30 µM turned out to be 90.6%.

Consider `CC(C)(C#N)c1cccc(C(=O)NC2(C(=O)NCc3ccccc3)CCCCC2)c1` [Compound 123, N-(1-(benzylcarbamoyl)cyclohexyl)-3-(2-cyanopropan-2-yl)benzamide], for which the inhibition at 10 µM came out at 53.5% and the inhibition at 30 µM was found to be 27.3%.

In the case of `COc1ccc(C(=O)NC2(C(=O)NCc3cccc(C(F)(F)F)c3)CCCCC2)cc1C(C)(C)C#N` [Compound 118, 3-(2-cyanopropan-2-yl)-4-methoxy-N-(1-(3-(trifluoromethyl)benzylcarbamoyl)cyclohexyl)benzamide], the inhibition at 10 µM was found to be 75.4%, the inhibition at 30 µM worked out at 77.6% and the IC50 was 388 nM.

Turning to `Cc1cnc(CNC(=O)C2(NC(=O)c3cc(C(C)(C)C)nc(C(C)(C)C)c3)CCCCC2)cn1` [Compound 81, 2,6-di-tert-butyl-N-(1-((5-methylpyrazin-2-yl)methylcarbamoyl)cyclohexyl)isonicotinamide], the inhibition at 10 µM turned out to be 87.8%, the inhibition at 30 µM was 93.3% and the IC50 came out at 53.5 nM.

With `COc1c(C(C)(C)C)cc(C(=O)NC2(C(=O)NCc3ccc(S(C)(=O)=O)cc3)CCCCC2)cc1C(C)(C)C` [Compound 108, 3,5-di-tert-butyl-4-methoxy-N-(1-(4-(methylsulfonyl)benzylcarbamoyl)cyclohexyl)benzamide], the IC50 was 81.6 nM.

On to `COc1c(C(C)(C)C)cc(C(=O)NC2(C(=O)N3CCN(C)CC3)CCCCC2)cc1C(C)(C)C` [Compound 104, 3,5-di-tert-butyl-4-methoxy-N-(1-(4-methylpiperazine-1-carbonyl)cyclohexyl)benzamide], for which the concentration for half-maximal inhibition (IC50) turned out to be 1020 nM.

Consider `CN1CCN(Cc2ccc(CNC(=O)C3(NC(=O)c4cc(C(C)(C)C)nc(C(C)(C)C)c4)CCOCC3)cc2)CC1` [Compound 27, 2,6-di-tert-butyl-N-(4-(4-((4-methylpiperazin-1-yl)methyl)benzylcarbamoyl)tetrahydro-2H-pyran-4-yl)isonicotinamide], for which the inhibition at 10 µM came to 102% and the IC50 stood at 1040 nM.

With `CN(C)Cc1ccc(CNC(=O)C2(NC(=O)c3cc(C(C)(C)C)nc(C(C)(C)C)c3)CCOCC2)cc1` [Compound 23, 2,6-di-tert-butyl-N-(4-(4-((dimethylamino)methyl)benzylcarbamoyl)tetrahydro-2H-pyran-4-yl)isonicotinamide], the inhibition at 10 µM was found to be 87.4%.

As for `CN1CCC(NC(=O)c2cc(C(C)(C)C)nc(C(C)(C)C)c2)(C(=O)NCc2ccccc2)CC1` [Compound 97, N-(4-(benzylcarbamoyl)-1-methylpiperidin-4-yl)-2,6-di-tert-butylisonicotinamide], the inhibition at 10 µM stood at 76%, the inhibition at 30 µM was 90.6% and the concentration for half-maximal inhibition (IC50) worked out at 1070 nM.

For `CC(C)(C)c1cc(C(=O)NC2(C(=O)NCc3ccc(S(C)(=O)=O)cc3)CCCCC2)cc(C(C)(C)C)c1O` [Compound 112, 3,5-di-tert-butyl-4-hydroxy-N-(1-(4-(methylsulfonyl)benzylcarbamoyl)cyclohexyl)benzamide], the inhibition at 10 µM was determined as 96.7%, the inhibition at 30 µM worked out at 102% and the IC50 turned out to be 138 nM.

For `COc1c(C(C)(C)C)cc(CNC(=O)C2(NC(=O)c3cccc(C(F)(F)F)c3)CCCCC2)cc1C(C)(C)C` [Compound 73, N-(1-(3,5-di-tert-butyl-4-methoxybenzylcarbamoyl)cyclohexyl)-3-(trifluoromethyl)benzamide], the inhibition at 10 µM is 95.2%, the inhibition at 30 µM was 97.7% and the IC50 was 124 nM.

`CC(C)(C)c1cc(C(=O)NC2(C(=O)NCc3cccc(C(F)(F)F)c3)Cc3ccccc3C2)cc(C(C)(C)C)c1` [Compound 53, 2-(3,5-di-tert-butylbenzamido)-N-(3-(trifluoromethyl)benzyl)-2,3-dihydro-1H-indene-2-carboxamide]: the inhibition at 10 µM amounted to 56.3% and the inhibition at 30 µM was found to be 74.3%.

Turning to `Cc1cc(CNC(=O)C2(NC(=O)c3cc(C(C)(C)C)nc(C(C)(C)C)c3)CCCCC2)no1` [Compound 79, 2,6-di-tert-butyl-N-(1-((5-methylisoxazol-3-yl)methylcarbamoyl)cyclohexyl)isonicotinamide], the inhibition at 10 µM was 97.8%, the inhibition at 30 µM turned out to be 101% and the IC50 came out at 43.3 nM.

On to `COc1c(C(C)(C)C)cc(C(=O)NC2(C(=O)NCc3ccccc3)CCCCC2)cc1C(C)(C)C` [Compound 32, N-(1-(benzylcarbamoyl)cyclohexyl)-3,5-di-tert-butyl-4-methoxybenzamide], for which the inhibition at 10 µM was found to be 88.8%, the inhibition at 30 µM stood at 98% and the IC50 was found to be 5.6 nM.

Turning to `CC(C)(C)c1cc(C(=O)NC2(C(=O)NCc3nccs3)CCCCC2)cc(C(C)(C)C)c1O` [Compound 13, 3,5-di-tert-butyl-4-hydroxy-N-(1-(thiazol-2-ylmethylcarbamoyl)cyclohexyl)benzamide], the inhibition at 10 µM turned out to be 96.9%, the inhibition at 30 µM worked out at 99.8% and the IC50 worked out at 34.1 nM.

Regarding `COc1c(C(C)(C)C)cc(C(=O)NC2(C(=O)N3CCN(c4ccccc4)CC3)CCCCC2)cc1C(C)(C)C` [Compound 82, 3,5-di-tert-butyl-4-methoxy-N-(1-(4-phenylpiperazine-1-carbonyl)cyclohexyl)benzamide], the inhibition at 10 µM was 92.6%, the inhibition at 30 µM was 101% and the IC50 turned out to be 70.9 nM.

As to `CC(C)(C)c1cc(C(=O)NC2(C(=O)NCc3ccccc3)CCCC2)cc(C(C)(C)C)c1` [Compound 36, N-(1-(benzylcarbamoyl)cyclopentyl)-3,5-di-tert-butylbenzamide], the inhibition at 10 µM was 92%, the inhibition at 30 µM was 96.4% and the IC50 came to 251 nM.

As for `CC(C)(C)NC(=O)C(C)(C)c1ccc(C(=O)NC2(C(=O)NCc3cccc(C(F)(F)F)c3)CCCCC2)cc1` [Compound 126, 4-(1-(tert-butylamino)-2-methyl-1-oxopropan-2-yl)-N-(1-(3-(trifluoromethyl)benzylcarbamoyl)cyclohexyl)benzamide], the inhibition at 10 µM was 102%, the inhibition at 30 µM was 104% and the IC50 is 273 nM.

Consider `CC(C)(C)c1cc(C(=O)NC2(C(=O)N3CCOCC3)CCCC2)cc(C(C)(C)C)n1` [Compound 94, 2,6-di-tert-butyl-N-(1-(morpholine-4-carbonyl)cyclopentyl)isonicotinamide], for which the inhibition at 10 µM worked out at 96.6%, the inhibition at 30 µM came to 87.2% and the IC50 stood at 329 nM.

For the compound `COc1c(C(C)(C)C)cc(C(=O)NC2(C(=O)N3CCN(Cc4ccccc4)CC3)CCCCC2)cc1C(C)(C)C` [Compound 83, N-(1-(4-benzylpiperazine-1-carbonyl)cyclohexyl)-3,5-di-tert-butyl-4-methoxybenzamide], the inhibition at 10 µM amounted to 97.2%, the inhibition at 30 µM was 100% and the IC50 was determined as 134 nM.

Regarding `Cc1cc(CNC(=O)C2(NC(=O)c3cc(C(C)(C)C)nc(C(C)(C)C)c3)CC2)no1` [Compound 9, 2,6-di-tert-butyl-N-(1-((5-methylisoxazol-3-yl)methylcarbamoyl)cyclopropyl)isonicotinamide], the inhibition at 10 µM stood at 45.7% and the inhibition at 30 µM was 53.4%.

Take `COc1c(C(C)(C)C)cc(C(=O)NC2(C(=O)NCCCN3CCOCC3)CCCCC2)cc1C(C)(C)C` [Compound 105, 3,5-di-tert-butyl-4-methoxy-N-(1-(3-morpholinopropylcarbamoyl)cyclohexyl)benzamide]: the IC50 worked out at 704 nM.

Regarding `CC(C)(C)OC(=O)N1CCC(NC(=O)c2cc(C(C)(C)C)nc(C(C)(C)C)c2)(C(=O)O)CC1` [Compound 58, 1-(tert-butoxycarbonyl)-4-(2,6-di-tert-butylisonicotinamido)piperidine-4-carboxylic acid], the inhibition at 10 µM turned out to be 37.6% and the inhibition at 30 µM amounted to 77.9%.
